Reference: patent publication US20220112479A1, “COMPOUNDS STABILIZING AMYLASES IN LIQUIDS” (BASF SE, priority 2018, published 2022)

Experiments:
Type in all cases: biochemical
[1] = test system: Amy3=Stainzyme Plus L (12L); assay: amylase storage stability in liquid formulation (pNP release from Ethyliden-blocked-pNPG7); settings: base formulation II., 1.5 wt % component (a), storage at 37° C.
Description: (§1) The storage stability of amylase was assessed at 37° C.
Base test formulations were manufactured by making base formulations I to V by mixing the components according to Table 1.
Amylases used: Amy1=Stainzyme, Amy2=Amplify, Amy3=Stainzyme Plus L (12L)
The respective component (a) or comparative compound was added, if applicable, to the respective base formulation in amounts as indicated in Table 1.
The amount of amylase as provided in Table 1 refers to active protein.
Water was added to accomplish the balance to 100.
(§2) Amylase activity at certain points in time as indicated in Table 2 was measured quantitatively by the release of the chromophore para-nitrophenol (pNP) from the substrate (Ethyliden-blocked-pNPG7, Roche Applied Science 10880078103). The alpha-amylase degrades the substrate into smaller molecules and α-glucosidase (Roche Applied Science 11626329103), which is present in excess compared to the amylase, process these smaller products until pNP is released; the release of pNP, measured via an increase of absorption at 405 nm, is directly proportional to the amylase activity of the sample. Amylase standard: Termamyl 120 L (Sigma 3403).
(§3) The amylolytic activity values provided were calculated referring to the value determined in the reference formulation at the time 0.
(§4) The nomenclature of formulations is as follows: the Roman number before the full stop characterizes the base formulation, the Arabian number the type of compound (A.# compound according to invention (component (a)); B.# comparative compound).

Amy2=Amplify = assay: as above; design: key: % of activity in reference formulation at time 0; settings: storage at 37° C.
Procedure, shortened: (§5)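 Amylase (dosed as active protein) was stored at 37 °C in liquid base formulations with or without test or comparative compounds. Activity at set time points was measured as pNP release (A405) from blocked-pNPG7 with excess α-glucosidase, expressed relative to the reference formulation at time 0.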

Amy1=Stainzyme = assay: as above; design: key: % of activity in reference formulation at time 0; settings: storage at 37° C.
Procedure, shortened: as §5

Amylase = assay: amylase storage stability in liquid laundry formulation (pNP release from Ethyliden-blocked-pNPG7); design: key: % of activity in reference formulation at time 0; settings: 2.5 wt % component (a), storage at 37° C.
Description: as §1
Base test formulations were manufactured by making base formulations VI to IX by mixing the components according to Table 4.
as §2, with “Table 5” for “Table 2”
as §3, §4

CCOC(=O)CC(O)(CC(=O)OCC)C(=O)OCC [A.1, Triethylcitrate]
amylase activity, referring to reference formulation at time 0 ([1]; 3 d): 100
amylase activity, referring to reference formulation at time 0 ([1]; 7 d): 94
amylase activity, referring to reference formulation at time 0 ([1]; 14 d): 90
amylase activity, referring to reference formulation at time 0 ([1]; 21 d): 84
amylase activity, referring to reference formulation at time 0 ([1]; 28 d): 77
amylase activity, referring to reference formulation at time 0 ([1]; 42 d): 65
amylase activity, referring to reference formulation at time 0 ([1]; T0): 100
amylase activity, referring to reference formulation at time 0 (Amy2=Amplify; base formulation III., 1.5 wt % component (a), 3 d): 98
amylase activity, referring to reference formulation at time 0 (Amy2=Amplify; base formulation III., 1.5 wt % component (a), 7 d): 95
amylase activity, referring to reference formulation at time 0 (Amy2=Amplify; base formulation III., 1.5 wt % component (a), 14 d): 91
amylase activity, referring to reference formulation at time 0 (Amy2=Amplify; base formulation III., 1.5 wt % component (a), 21 d): 86
amylase activity, referring to reference formulation at time 0 (Amy2=Amplify; base formulation III., 1.5 wt % component (a), 28 d): 78
amylase activity, referring to reference formulation at time 0 (Amy2=Amplify; base formulation III., 1.5 wt % component (a), 42 d): 68
amylase activity, referring to reference formulation at time 0 (Amy2=Amplify; base formulation III., 1.5 wt % component (a), T0): 100
amylase activity, referring to reference formulation at time 0 (Amy2=Amplify; base formulation V., 2.0 wt % component (a), 3 d): 96
amylase activity, referring to reference formulation at time 0 (Amy2=Amplify; base formulation V., 2.0 wt % component (a), 7 d): 91
amylase activity, referring to reference formulation at time 0 (Amy2=Amplify; base formulation V., 2.0 wt % component (a), 14 d): 87
amylase activity, referring to reference formulation at time 0 (Amy2=Amplify; base formulation V., 2.0 wt % component (a), 21 d): 80
amylase activity, referring to reference formulation at time 0 (Amy2=Amplify; base formulation V., 2.0 wt % component (a), 28 d): 73
amylase activity, referring to reference formulation at time 0 (Amy2=Amplify; base formulation V., 2.0 wt % component (a), 42 d): 62
amylase activity, referring to reference formulation at time 0 (Amy2=Amplify; base formulation V., 2.0 wt % component (a), T0): 98
amylase activity, referring to reference formulation at time 0 (Amy1=Stainzyme; base formulation I., 1.5 wt % component (a), 3 d): 98
amylase activity, referring to reference formulation at time 0 (Amy1=Stainzyme; base formulation I., 1.5 wt % component (a), 7 d): 93
amylase activity, referring to reference formulation at time 0 (Amy1=Stainzyme; base formulation I., 1.5 wt % component (a), 14 d): 88
amylase activity, referring to reference formulation at time 0 (Amy1=Stainzyme; base formulation I., 1.5 wt % component (a), 21 d): 80
amylase activity, referring to reference formulation at time 0 (Amy1=Stainzyme; base formulation I., 1.5 wt % component (a), 28 d): 74
amylase activity, referring to reference formulation at time 0 (Amy1=Stainzyme; base formulation I., 1.5 wt % component (a), 42 d): 61
amylase activity, referring to reference formulation at time 0 (Amy1=Stainzyme; base formulation I., 1.5 wt % component (a), T0): 100
amylase activity, referring to reference formulation at time 0 (Amy1=Stainzyme; base formulation IV., 2.0 wt % component (a), 3 d): 96
amylase activity, referring to reference formulation at time 0 (Amy1=Stainzyme; base formulation IV., 2.0 wt % component (a), 7 d): 92
amylase activity, referring to reference formulation at time 0 (Amy1=Stainzyme; base formulation IV., 2.0 wt % component (a), 14 d): 88
amylase activity, referring to reference formulation at time 0 (Amy1=Stainzyme; base formulation IV., 2.0 wt % component (a), 21 d): 83
amylase activity, referring to reference formulation at time 0 (Amy1=Stainzyme; base formulation IV., 2.0 wt % component (a), 28 d): 73
amylase activity, referring to reference formulation at time 0 (Amy1=Stainzyme; base formulation IV., 2.0 wt % component (a), 42 d): 61
amylase activity, referring to reference formulation at time 0 (Amy1=Stainzyme; base formulation IV., 2.0 wt % component (a), T0): 98
amylase activity, referring to reference formulation at time 0 (Amylase; laundry base formulation IX. (2.5 DTPA), 3 d): 98
amylase activity, referring to reference formulation at time 0 (Amylase; laundry base formulation IX. (2.5 DTPA), 7 d): 90
amylase activity, referring to reference formulation at time 0 (Amylase; laundry base formulation IX. (2.5 DTPA), 14 d): 85
amylase activity, referring to reference formulation at time 0 (Amylase; laundry base formulation IX. (2.5 DTPA), 21 d): 78
amylase activity, referring to reference formulation at time 0 (Amylase; laundry base formulation IX. (2.5 DTPA), 28 d): 70
amylase activity, referring to reference formulation at time 0 (Amylase; laundry base formulation IX. (2.5 DTPA), T0): 99
amylase activity, referring to reference formulation at time 0 (Amylase; laundry base formulation VI. (2.0 EDTA), 3 d): 98
amylase activity, referring to reference formulation at time 0 (Amylase; laundry base formulation VI. (2.0 EDTA), 7 d): 91
amylase activity, referring to reference formulation at time 0 (Amylase; laundry base formulation VI. (2.0 EDTA), 14 d): 86
amylase activity, referring to reference formulation at time 0 (Amylase; laundry base formulation VI. (2.0 EDTA), 21 d): 81
amylase activity, referring to reference formulation at time 0 (Amylase; laundry base formulation VI. (2.0 EDTA), 28 d): 73
amylase activity, referring to reference formulation at time 0 (Amylase; laundry base formulation VI. (2.0 EDTA), T0): 100
amylase activity, referring to reference formulation at time 0 (Amylase; laundry base formulation VII. (2.0 EDTA), 3 d): 95
amylase activity, referring to reference formulation at time 0 (Amylase; laundry base formulation VII. (2.0 EDTA), 7 d): 88
amylase activity, referring to reference formulation at time 0 (Amylase; laundry base formulation VII. (2.0 EDTA), 14 d): 79
amylase activity, referring to reference formulation at time 0 (Amylase; laundry base formulation VII. (2.0 EDTA), 21 d): 73
amylase activity, referring to reference formulation at time 0 (Amylase; laundry base formulation VII. (2.0 EDTA), 28 d): 68
amylase activity, referring to reference formulation at time 0 (Amylase; laundry base formulation VII. (2.0 EDTA), T0): 100
amylase activity, referring to reference formulation at time 0 (Amylase; laundry base formulation VIII. (2.5 DTPA, no Savinase), 3 d): 98
amylase activity, referring to reference formulation at time 0 (Amylase; laundry base formulation VIII. (2.5 DTPA, no Savinase), 7 d): 93
amylase activity, referring to reference formulation at time 0 (Amylase; laundry base formulation VIII. (2.5 DTPA, no Savinase), 14 d): 88
amylase activity, referring to reference formulation at time 0 (Amylase; laundry base formulation VIII. (2.5 DTPA, no Savinase), 21 d): 83
amylase activity, referring to reference formulation at time 0 (Amylase; laundry base formulation VIII. (2.5 DTPA, no Savinase), 28 d): 75
amylase activity, referring to reference formulation at time 0 (Amylase; laundry base formulation VIII. (2.5 DTPA, no Savinase), T0): 100
